{"source": "patent US12384800B2", "about": "“Antitumoral compounds” (priority 2017, dated 2025)", "key": {"[1]": {"experiment": "MTMD (Maximum Tolerated Multiple Dose) determination, iv weekly x 3", "assay_type": "in vivo", "details": "mice; iv/Q7d × 3", "from_the_text": "(§1) Female CD-1 or Athymic Nude-Fox1 nu/nu mice (Envigo) were utilized for all experiments. […] Animals were acclimated for five days prior to being individually tattoo-identified. Animal protocols were reviewed and approved according to the regional Institutional Animal Care and Use Committees.\n(§2) Mice were randomly allocated into experimental groups and intravenously administered, once for the MTD (Maximum Tolerated Dose) determination or one administration a week during three consecutive weeks, for the MTMD (Maximum Tolerated Multiple Dose) determination study. The animals were administered with white formulation or with compound dissolved in the experimental formulation at different concentrations. The volume administered was always […]. Once administered, animals were monitored for clinical signs of systemic toxicity, changes in body weight and mortality up to 14 days after the administration."}, "[2]": {"experiment": "MTD (Maximum Tolerated Dose) determination, single iv administration", "assay_type": "in vivo", "details": "mice, iv/SD (single dose), monitored up to 14 days", "from_the_text": "as §1, §2"}, "HT1080 tumors": {"system": "HT1080 tumors", "experiment": "Human fibrosarcoma xenograft, total diameter (tumor + leg)", "details": "iv Days 0, 7 and 14, 4-R 0.30 mg/kg", "description": "Female athymic nu/nu mice (Harlan Laboratories Models, S.L. Barcelona, Spain or Envigo, Spain) were utilized for all experiments. Animal were housed in individually ventilated cages Sealsafe® Plus, Techniplast S.P.A.), up to ten per cage on a 12-hour light-dark cycle at 21-23° C. and 40-60% humidity. […] Animals were acclimated for at least 5 days prior to tumor implantation with a tumor cell suspension.\nHT1080 cells were maintained in vitro at 37° C. with 5% CO2 in Minimum Essential Medium Eagle (MEME) (Sigma-Aldrich, Co). Each animal was orthotopically implanted into gastroecnemius muscle by an intramuscular injection using a 26G needle and a 1 cc syringe at 4-6 weeks of age, with 10×10^6 HT1080 cells, suspended in serum free medium, without antibiotics.\nTreatment tolerability was assessed by monitoring body weight evolution, clinical signs of systemic toxicity, as well as evidences of local damage in the injection site.\nIn xenograft studies with HT1080 cell line: • Total diameter (tumor+leg) measurements were determined by using digital caliper (Fowler Sylvac, S235PAT).\nTreatments producing >20% lethality and/or 20% net body weight loss were considered toxic."}, "[3]": {"system": "MDA-MB-231 cells (breast adenocarcinoma)", "experiment": "cells", "details": "Homo sapiens, MDA-MB-231, 72 h", "procedure,_shortened": "(§3)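 Cells seeded at 5000/well, attached 18 h, then exposed 72 h to ten 2/5 serial dilutions (10 to 0.003 μg/mL; 1% DMSO final) in triplicate; time-zero plate fixed. SRB staining after glutaraldehyde fixation; growth effects by NCI algorithm, four-parameter logistic fit.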"}, "[4]": {"system": "A549 cells (lung carcinoma, NSCLC)", "experiment": "cells", "details": "Homo sapiens, A549, 72 h", "procedure,_shortened": "as §3"}, "[5]": {"system": "HT29 cells (colorectal adenocarcinoma)", "experiment": "cells", "details": "Homo sapiens, HT-29, 72 h", "procedure,_shortened": "as §3"}, "[6]": {"system": "PSN1 cells (pancreas adenocarcinoma)", "experiment": "cells", "details": "Homo sapiens, PSN1, 72 h, read-out: TGI", "procedure,_shortened": "as §3"}}}
{"smiles": "COc1c(C)cc2c(c1O)[C@@H]1[C@@H]3[C@@H]4SC[C@]5(N[C@@H](CO)Cc6c5[nH]c5ccccc65)C(=O)OC[C@@H](c5c6c(c(C)c(OC(C)=O)c54)OCO6)N3[C@@H](O)[C@H](C2)N1C", "note": "[Compound 4-R]", "values": [{"measurement": "MTMD", "setting": "[1]", "value": 0.30, "unit": "mg/kg"}, {"measurement": "MTD", "setting": "[2]", "value": 0.25, "unit": "mg/kg"}, {"measurement": "Total diameter (tumor + leg)", "setting": "HT1080 tumors; Day 0, PM01183 […]", "value": 8.1, "unit": "mm"}, {"measurement": "Total diameter (tumor + leg)", "setting": "HT1080 tumors; Day 2, PM01183 […]", "value": 8.6, "unit": "mm"}, {"measurement": "Total diameter (tumor + leg)", "setting": "HT1080 tumors; Day 7, PM01183 […]", "value": 8.7, "unit": "mm"}, {"measurement": "Total diameter (tumor + leg)", "setting": "HT1080 tumors; Day 9, PM01183 […]", "value": 9.0, "unit": "mm"}, {"measurement": "Total diameter (tumor + leg)", "setting": "HT1080 tumors; Day 14, PM01183 […]", "value": 9.3, "unit": "mm"}, {"measurement": "Total diameter (tumor + leg)", "setting": "HT1080 tumors; Day 18, PM01183 […]", "value": 10.3, "unit": "mm"}, {"measurement": "Total diameter (tumor + leg)", "setting": "HT1080 tumors; Day 21, PM01183 […]", "value": 11.5, "unit": "mm"}, {"measurement": "Total diameter (tumor + leg)", "setting": "HT1080 tumors; Day 23, PM01183 […]", "value": 13.3, "unit": "mm"}, {"measurement": "Total diameter (tumor + leg)", "setting": "HT1080 tumors; Day 25, PM01183 […]", "value": 15.8, "unit": "mm"}, {"measurement": "Total diameter (tumor + leg)", "setting": "HT1080 tumors; Day 28", "value": 18.0, "unit": "mm"}]}
{"smiles": "COc1ccc2[nH]c3c(c2c1)C[C@H](CO)N[C@]31CS[C@@H]2c3c(OC(C)=O)c(C)c4c(c3[C@H](COC1=O)N1[C@@H]2[C@H]2c3c(cc(C)c(OC)c3O)C[C@@H]([C@@H]1O)N2C)OCO4", "note": "[Compound 19-R]", "values": [{"measurement": "MTMD", "setting": "[1]", "value": 0.15, "unit": "mg/kg"}, {"measurement": "MTD at 14 days", "setting": "[2]; female, mouse, in vivo", "value": 0.15, "unit": "mg/kg"}, {"measurement": "CC50", "setting": "[3]; read-out: LC50", "value": "> 123", "unit": "nM"}, {"measurement": "IC (total growth inhibition)", "setting": "[3]; read-out: TGI", "value": 0.00135, "unit": "µM"}, {"measurement": "CC50", "setting": "[4]; read-out: LC50", "value": "> 123", "unit": "nM"}, {"measurement": "IC (total growth inhibition)", "setting": "[4]; read-out: TGI", "value": 0.00356, "unit": "µM"}, {"measurement": "CC50", "setting": "[5]; read-out: LC50", "value": "> 123", "unit": "nM"}, {"measurement": "IC (total growth inhibition)", "setting": "[5]; read-out: TGI", "value": 0.00172, "unit": "µM"}, {"measurement": "IC (total growth inhibition)", "setting": "[6]", "value": 0.00135, "unit": "µM"}]}
